Results: patent US20070078120A1, “Novel piperidine derivative” (priority 2003, published 2007)
Structures can show the parent of a compound that is named as a salt.

How the values were obtained:
[1] = system: LDL receptor; assay: LDL receptor activity: amount of DiI-LDL uptaken into HepG2 cells; format: cell-based, human; conditions: DiI-LDL uptake into HepG2 cells, control group = 100%
Experimental: A preparation of 1,1′-dioctadecyl-3,3,3′,3′-tetramethylindocarbocyanine perchlorate (DiI)-labeled LDL (DiI-LDL) was carried out as follows. That is, DiI (invitrogen, the U.S.) was mixed with human LDL (CHEMICON, the U.S.), and the mixture was kept for 8 hours at 37° C. Thereto a specific density solution (d=1.182) was added and mixed, and then treated with super centrifugation operation (32 k rpm, 14 hours; using Beckman Ti55.2 rotator). After the centrifugation, the DiI labeled LDL fraction was taken up and prepared via a dialysis against saline.
The action on LDL receptor was determined with the amount of the DiI-LDL uptaken into HepG2 cells which was as an indicator. Namely, human hepatoma cell line HepG2 was bought from DAINIPPON PHARMACEUTICAL CO., LTD (Osaka, Japan) and it was used for the experiment. The HepG2 cells were plated on a 96 well plate and incubated with Dulbecco's modified Eagle/F-12 medium (DMEM/F-12) containing 10% fetal bovine serum and antibiotics for 2-3 days at 37° C. in a CO2 incubator. After washing the cells, DMEM/F-12 media containing the test compound, 10% delipoprotein serum and antibiotics was added thereto and cells were incubated for 19 hours at 37° C. The DiI-LDL was added thereto, and cells were incubated for additional 5 hours at 37° C. in a CO2 incubator. For the measurement of the amount of nonspecific DiI-LDL uptake, another 30-50 times the nonlabeled LDL was added additively to each well. After washing cells with Dulbecco's phosphate buffer (SIGMA, the U.S.), Dulbecco's phosphate buffer was added to each well, and then the fluorescence value was measured with a fluorescence plate reader to determine the amount of the DiI-LDL uptaken into cells. After measuring the fluorescence, the Dulbecco's phosphate buffer was removed. Cells were dissolved in 1N sodium hydroxide solution. Using a part of the solution, the protein amount was measured. The action of each compound on LDL receptor was estimated on the basis of 100% of the control group, using the value given by subtracting the nonspecifically uptaken amount from the calculated fluorescence value/protein amount.

[2] = system: LDL receptor; assay: Measurement of LDL receptor expression: LDL-R protein amount by immunoblotting in HepG2 cells; format: cell-based, human; conditions: compared with the control group
Experimental: We investigated the effect of each test compound on the amount of LDL receptor in HepG2 cells, a human hepatoma cell line. Cells were seeded in each well of 6-well plates at the density of 7.5×10^5 cells/well (day 1). On day 3, the culture media was changed to a media containing lipoprotein deficient serum and the test compound. On day 4, the cells were scraped and then collected by centrifugation operation. The collected cells were lysed in a buffer containing 0.1% TritonX-100, treated with centrifugation, and then the supernatant was given as a cell protein solution. Using the prepared cell protein solution, the LDL-R protein amount was determined with an immunoblotting procedure.
HepG2 cells were treated with the compound of Examples 1-4, and then LDL receptor protein amount was determined by immunoblotting procedure.

With “1-(2-methoxyphenyl)-4-[3-(methylamino)-phenyl]piperidine-4-carbonitrile and 4-[3-(dimethylamino)-phenyl]-1-(2-methoxyphenyl)piperidine-4-carbonitrile [Example 20]” the “Activity of LDL receptor(%)” value ([1]; 10 μM) was 123%.

With `COc1cccc([C@]2(C#N)CC[C@H](N3CCNCC3)CC2)c1` (as salt: hydrochloride) [Example 58-1, trans-1-(3-methoxyphenyl)-4-piperazin-1-yl-cyclohexanecarbonitrile dihydrochloride] the melting point was 159 to 160 °C.

For `COc1cccc(C2(C#N)CCN(c3ccccc3OC)CC2)c1` [Example 1-4, 1-(2-methoxyphenyl)-4-(3-methoxyphenyl)-piperidine-4-carbonitrile], the “LDL receptor protein amount (immunoblotting)” value ([2]; 1 μM) was “superior activity enhancing the protein amount of LDL receptor”, the “LDL receptor protein amount (immunoblotting)” value ([2]; 10 μM) was “superior activity enhancing the protein amount of LDL receptor” and the “Activity of LDL receptor(%)” value ([1]; 10 μM) was 134%.

With `COc1cccc(C2(C#N)CCN(c3ncccc3OCc3ccccc3)CC2)c1` [Example 6-3, 1-[3-(Benzyloxy)pyridin-2-yl]-4-(3-methoxyphenyl)-piperidine-4-carbonitrile] the “Activity of LDL receptor(%)” value ([1]; 10 μM) was 127%.

With `COc1cccc(C2(C#N)CCN(c3nc4ccccc4s3)CC2)c1` [Example 7-3, 1-(1,3-Benzothiazol-2-yl)-4-(3-methoxyphenyl)piperidine-4-carbonitrile] the “Activity of LDL receptor(%)” value ([1]; 3 μM) was 125%.

In the case of `COc1cccc(C2(CO)CCN(c3ccccc3OC)CC2)c1` [Example 12, [1-(2-Methoxyphenyl)-4-(3-methoxyphenyl)piperidin-4-yl]-methanol], the “Activity of LDL receptor(%)” value ([1]; 10 μM) is reported as 134%.

For `COc1cccc(C2(C(=O)NCc3ccccc3)CCN(c3ncccn3)CC2)c1` [Example 43-2, N-benzyl-4-(3-methoxyphenyl)-1-pyrimidin-2-ylpiperidine-4-carboxyamide], the “Activity of LDL receptor(%)” value ([1]; 10 μM) was 116%.

For `COc1cccc(C2(C(=S)NCc3ccccc3)CCN(c3ncccn3)CC2)c1` [Example 44, N-benzyl-4-(3-methoxyphenyl)-1-pyrimidin-2-ylpiperidine-4-carbothioamide], the “Activity of LDL receptor(%)” value ([1]; 3 μM) was 135%.

In the case of `COc1cccc(C2(C(N)=O)CC3CCC(C2)N3c2ccccc2OC)c1` (centres unmarked) [Example 49-f, 8-(2-Methoxyphenyl)-3-(3-methoxyphenyl)-8-azabicyclo-[3.2.1]octane-3-carboxyamide], the “Activity of LDL receptor(%)” value ([1]; 10 μM) is reported as 135%.

With `COc1cccc(C2(CN3CCCCC3)CCN(c3ccccc3OC)CC2)c1` [Example 55-1, 1-(2-methoxyphenyl)-4-(3-methoxyphenyl)-4-(piperidin-1-ylmethyl)piperidine] the “Activity of LDL receptor(%)” value ([1]; 1 μM) was 141%.

With `COc1cccc([C@]2(C#N)CC[C@H](N3CCNCC3)CC2)c1` [Example 58-1, trans-1-(3-methoxyphenyl)-4-piperazin-1-yl-cyclohexanecarbonitrile dihydrochloride] the “Activity of LDL receptor(%)” value ([1]; 10 μM) was 152%.

With `COc1cccc(C2(C#N)CCC(N3CCN(c4ncccn4)CC3)CC2)c1` (centres unmarked) [Example 82, 1-(3-methoxyphenyl)-4-(4-pyrimidin-2-yl-piperazin-1-yl)cyclohexanecarbonitrile] the “Activity of LDL receptor(%)” value ([1]; 10 μM) was 125%.

With `COc1cccc(C2(C#N)CCN(C3CCNCC3)CC2)c1` [Example 85, 4-(3-methoxyphenyl)-1,4′-bipiperidine-4-carbonitrile dihydrochloride] the “Activity of LDL receptor(%)” value ([1]; 10 μM) was 149%.

In the case of `COc1cccc(C2(C#N)CCN(C3CCN(Cc4ccccc4)CC3)CC2)c1` [Example 89, 1′-benzyl-4-(3-methoxyphenyl)-1,4′-bipiperidine-4-carbonitrile], the “Activity of LDL receptor(%)” value ([1]; 10 μM) is reported as 195%.

For `COc1cccc([C@]2(C#N)CC[C@@H](NCc3ccccc3)CC2)c1` [Example 105, cis-4-(benzylamino)-1-(3-methoxyphenyl)-cyclohexanecarbonitrile], the “Activity of LDL receptor(%)” value ([1]; 10 μM) was 139%.
